The test addresses T1, Human thrombin (Homo sapiens, UniProt P00734).
T1 construct: conversion of the proenzyme prothrombin to the active enzyme thrombin; purchased Sigma Chem Co T 6769
Briefly: Test A: determination of thrombin clotting time (TT). It counts as biochemical. The conditions noted are these: concentration of inhibitor that doubles the thrombin clotting time for human plasma. As to the method: Determination of Thrombin Clotting Time (TT)
The inhibitor solution (25 μL) was incubated with plasma (25 μL) for three minutes. Human thrombin (T 6769; Sigma Chem Co) in buffer solution, pH 7.4 (25 μL) was then added and the clotting time measured in an automatic device (KC 10; Amelung).
The clotting time in seconds was plotted against the inhibitor concentration, and the IC50TT was determined by interpolation.
IC50TT is the concentration of inhibitor in the test that doubles the thrombin clotting time for human plasma.

Molecules are shown by their SMILES.

In the case of `COc1ccc2c(c1)C(O)(C(=O)N1CCC1C(=O)N(C)Cc1ccc(C(=N)N)cc1)CCC2` (single isomer, unassigned) [Example 37, (S)- or (R)-1-Hydroxy-7-methoxytetralin-1-yl-C(O)-Aze-N(Me)-Bzl-4-C(NH2)NH×HOAc], the IC50 is under 300 nM. `N=C(N)c1ccc(CNC(=O)[C@@H]2CCN2C(=O)C2(O)c3ccccc3-c3ccccc32)cc1` [Example 38, 9-Hydroxyfluoren-9-yl-C(O)-Aze-Pab×HOAc] showed an IC50 of under 300 nM.

(Values after patent US6576657B2, “Amidino derivatives and their use as thrombin inhibitors” (AstraZeneca AB, priority 1997, dated 2003).)
